Test results taken from ChEMBL document CHEMBL5252511 (J Med Chem, 2016).

How the values were obtained:
[1] = Permeability of compound at pH 7.4 by PAMPA assay; type: ADME; settings: read-out: permeability
[2] = Permeability across apical to basolateral side in human Caco2 cells; type: ADME, cell-based; settings: Caco-2, read-out: permeability
[3] = Permeability of compound at pH 5.5 by PAMPA assay; type: ADME; settings: read-out: permeability
[4] = Permeability across basolateral to apical side in human Caco2 cells; type: ADME, cell-based; settings: Caco-2, read-out: permeability
[5] = Drug exposure in brain of triple transgenic C57BL/6 mouse alzheimer disease model at 30 mg/kg,po and measured after 2 hrs; type: ADME, organism-based; settings: read-out: Ct
[6] = Ratio of drug concentration in brain to plasma of triple transgenic C57BL/6 mouse alzheimer disease model at 30 mg/kg,po and measured after 2 hrs; type: ADME, organism-based
[7] = Drug exposure in plasma of triple transgenic C57BL/6 mouse alzheimer disease model at 30 mg/kg,po and measured after 2 hrs; type: ADME, organism-based

Row | Papp [1] [×10⁻⁶ cm/s] | Papp A→B [2] [×10⁻⁶ cm/s] | Papp [3] [×10⁻⁶ cm/s] | Papp B→A [4] [×10⁻⁶ cm/s] | concentration at 2 h [5] [nM] | Kp at 2 h [6] | concentration at 2 h [7] [nM] | Structure (SMILES)
1 | 48.3 | 31.9 | 52.6 | 30.1 | 440 | 0.2 |  | O=C(Nc1cnccc1-c1ccccc1)c1ccnc(NC(=O)C2CC2)c1
2 | 126 | 35.4 | 90.4 | 27.9 |  |  |  | O=C(Nc1cnccc1-c1ccc(Cl)cc1)c1ccnc(NC(=O)C2CC2)c1
3 |  |  |  |  |  |  | 47 | CCOc1ccncc1NC(=O)c1ccnc(NC(=O)C2CC2)c1
